# According to patent publication US8247211B2, “Glycopeptide antibiotics” (American Cyanamid Company, priority 2001, dated 2012):
# Tests used:
# Experiment in all cases: In vitro antibacterial evaluation: minimum inhibitory concentration (MIC), broth dilution method
# Assay type in all cases: cell-based
# [1] = test system: Enterococcus sp.; settings: 18 hours at 35° C.
# In short: (§1)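 Following NCCLS approved standard M7-A2, compounds are serially diluted from 64 to 0.06 μg/mL in Muller-Hinton II […] and inoculated at 5×10^5 CFU/mL; the MIC is the minimum concentration at which growth is inhibited.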
# [2] = test system: Escherichia coli; settings: 18 hours at 35° C.
# In short: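 Inoculum: 5×10^5 CFU/mL. Range: 64-0.06 μg/mL. Medium: Muller-Hinton II […]; NCCLS M7-A2 broth dilution. Endpoint: lowest concentration inhibiting growth. Strains include methicillin-, penicillin- and/or vancomycin-resistant clinical isolates.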
# [3] = test system: Staphylococcus sp.
# In short: as §1
# [4] = test system: Streptococcus sp.; settings: 18 hours at 35° C.
# In short: as §1
# [5] = broth dilution, inoculum 5×10^5 CFU/mL
smiles,measurement,setting,value
"CC(c1ccccc1)C1NC(=O)CNC(=O)C(CO)NC(=O)C(C(O)C2CNC(=N)N2C2OC(CO)C(O)C(O)C2O)NC(=O)C(C(O)C2CNC(=N)N2)NC(=O)C(Cc2ccc(OC3OC(CO)C(OC4OC(CO)C(O)C5OC6(CCCCCCCCCCCC6)OC45)C(O)C3O)cc2)NC1=O (stereo not drawn) [Example 210a, Cyclo[glycyl-β-methylphenylalanyl-O-[4-O-(2,3-O-cyclotridecylidenehexopyranosyl)hexopyranosyl]tyrosyl-3-(2-iminoimidazolidin-4-yl)seryl-3-(3-hexopyranosyl-2-iminoimidazolidin-4-yl)serylseryl]]",MIC Enterococcus avium (GC 4558),[1]; Enterococcus avium (GC 4558),4 µg/mL
same,MIC Enterococcus faecalis (ATCC 29212),[1]; Enterococcus faecalis (ATCC 29212),8 µg/mL
same,MIC Enterococcus faecalis (GC 2242),[1]; Enterococcus faecalis (GC 2242),8 µg/mL
same,MIC Enterococcus faecalis (GC 2691),[1]; Enterococcus faecalis (GC 2691),8 µg/mL
same,MIC Enterococcus faecalis (GC 3059),[1]; Enterococcus faecalis (GC 3059),8 µg/mL
same,MIC Enterococcus faecalis (GC 4552),[1]; Enterococcus faecalis (GC 4552),8 µg/mL
same,MIC Enterococcus faecalis (GC 4553),[1]; Enterococcus faecalis (GC 4553),8 µg/mL
same,MIC Enterococcus faecalis (GC 4554),[1]; Enterococcus faecalis (GC 4554),8 µg/mL
same,MIC Enterococcus faecalis (GC 6189),[1]; Enterococcus faecalis (GC 6189),8 µg/mL
same,MIC Enterococcus faecium (GC 2243),[1]; Enterococcus faecium (GC 2243),4 µg/mL
same,MIC Enterococcus faecium (GC 4556),[1]; Enterococcus faecium (GC 4556),8 µg/mL
same,MIC Enterococcus faecium (GC 4557),[1]; Enterococcus faecium (GC 4557),4 µg/mL
same,MIC Enterococcus avium (GC 4558),[1]; [5],4 µg/mL
same,MIC Enterococcus faecalis (ATCC 29212),[1]; [5],8 µg/mL
same,MIC Enterococcus faecalis (GC 2242),[1]; [5],8 µg/mL
same,MIC Enterococcus faecalis (GC 2691),[1]; [5],8 µg/mL
same,MIC Enterococcus faecalis (GC 3059),[1]; [5],8 µg/mL
same,MIC Enterococcus faecalis (GC 4552),[1]; [5],8 µg/mL
same,MIC Enterococcus faecalis (GC 4553),[1]; [5],8 µg/mL
same,MIC Enterococcus faecalis (GC 4554),[1]; [5],8 µg/mL
same,MIC Enterococcus faecalis (GC 6189),[1]; [5],8 µg/mL
same,MIC Enterococcus faecium (GC 2243),[1]; [5],4 µg/mL
same,MIC Enterococcus faecium (GC 4556),[1]; [5],8 µg/mL
same,MIC Enterococcus faecium (GC 4557),[1]; [5],4 µg/mL
same,MIC Escherichia coli (ATCC 25922),[2]; Escherichia coli (ATCC 25922),>64 µg/mL
same,MIC Escherichia coli (GC 4559),[2]; Escherichia coli (GC 4559),>64 µg/mL
same,MIC Escherichia coli (GC 4560),[2]; Escherichia coli (GC 4560),16 µg/mL
same,MIC Staphylococcus aureus (ATCC 29213),[3]; strain ATCC 29213,4 µg/mL
same,MIC Staphylococcus aureus (GC 1131),[3]; strain GC 1131,4 µg/mL
same,MIC Staphylococcus aureus (GC 3051),[3]; strain GC 3051,8 µg/mL
same,MIC Staphylococcus aureus (GC 3053),[3]; strain GC 3053,4 µg/mL
same,MIC Staphylococcus aureus (GC 4541),[3]; strain GC 4541,4 µg/mL
same,MIC Staphylococcus aureus (GC 4542),[3]; strain GC 4542,8 µg/mL
same,MIC Staphylococcus aureus-SMITH (GC 4543),[3]; strain GC 4543,4 µg/mL
same,MIC Staphylococcus aureus (GC 4544),[3]; strain GC 4544,8 µg/mL
same,MIC Staphylococcus aureus (GC 4545),[3]; strain GC 4545,4 µg/mL
same,MIC Staphylococcus haemolyticus (GC 4546),[3]; strain GC 4546,8 µg/mL
same,MIC Coagulase Negative Staphylococcus (GC 4547),[3]; strain GC 4547,4 µg/mL
same,MIC Coagulase Negative Staphylococcus (GC 4548),[3]; strain GC 4548,4 µg/mL
same,MIC Coagulase Negative Staphylococcus (GC 4549),[3]; strain GC 4549,2 µg/mL
same,MIC Coagulase Negative Staphylococcus (GC 4551),[3]; strain GC 4551,4 µg/mL
same,MIC Coagulase Negative Staphylococcus (GC 6257),[3]; strain GC 6257,4 µg/mL
same,MIC Streptococcus agalactiae (GC 4564),[4]; Streptococcus agalactiae (GC 4564),2 µg/mL
same,MIC Streptococcus pneumoniae (ATCC 6301),[4]; Streptococcus pneumoniae (ATCC 6301),0.5 µg/mL
same,MIC Streptococcus pneumoniae (GC 1894),[4]; Streptococcus pneumoniae (GC 1894),<0.06 µg/mL
same,MIC Streptococcus pneumoniae (GC 4565),[4]; Streptococcus pneumoniae (GC 4565),0.25 µg/mL
same,MIC Streptococcus pyogenes (GC 4563),[4]; Streptococcus pyogenes (GC 4563),1 µg/mL
same,MIC Streptococcus agalactiae (GC 4564),[4]; [5],2 µg/mL
same,MIC Streptococcus pneumoniae (ATCC 6301),[4]; [5],0.5 µg/mL
same,MIC Streptococcus pneumoniae (GC 1894),[4]; [5],<0.06 µg/mL
same,MIC Streptococcus pneumoniae (GC 4565),[4]; [5],0.25 µg/mL
same,MIC Streptococcus pyogenes (GC 4563),[4]; [5],1 µg/mL
